Reference: EP4813403A1, “USE OF GLP-1R/GIPR DOUBLE-TARGET AGONIST IN PREPARING ANIMAL DRUG” (Hangzhou Zhongmeihuadong Pharmaceutical Co., Ltd., priority 2023, dated 2025)

Tests used:
[1] = system: db/db mice; assay: Pharmacodynamic effects in db/db mice, single subcutaneous administration (blood glucose); assay type: in vivo; conditions: single s.c. 10 nmol/kg
Procedure: In this study, 8-9 week old male db/db mice were used. The db/db mice were placed in an individual ventilated cage (IVC) facility with a controlled temperature (20-26°C) and humidity (40-70%) and a controlled 12h:12 h light-dark cycle. The mice can receive food and water ad libitum. Blood was sampled at the tail tip, and the random base blood glucose was measured by a Roche blood glucose meter. The mice were randomly divided into groups according to the random initial fasting blood glucose and initial body weight (n=6/group), and each group had similar body weight and blood glucose.
After a single subcutaneous administration, the random base blood glucoses were recorded at the set time point (0 to 120 hours, the recording of the random base blood glucose was stopped until there was no difference between the random base blood glucose of the compound and that of the vehicle group), and the daily body weight and food intake were also recorded. The data results were statistically analyzed using GraphPad Prism8, and the statistical differences among the groups were analyzed following a T-Test. Significant differences were identified at p<0.05.
Hypoglycemic Duration: the longest time during which the random base blood glucose of the compound has a significant difference (p<0.05) vs. the vehicle group. Table 13. Hypoglycemic Duration of the Compounds

[2] = Pharmacokinetics following single administration in SD rats; conditions: male, Sprague-Dawley, rat, in vivo, sc
Procedure: The compound was administrated to male SD rats (230-268 g, n=3) at a dose of 50.0 nmol/kg (s.c.) or 25.0 nmol/kg (i.v.). […] 30.0 μL of thawed plasma sample was taken. 150 μL of acetonitrile solution (containing 5 ng·mL^-1 Verapamil , 50 ng·mL^-1 Glibenclamide, 200 ng·mL^-1 Tolbutamide and 200 ng·mL^-1 Diclofenac) were added to precipitate protein. The mixture was vortexed for 5 minutes, and centrifuged at 3700 rpm for 8 minutes. 70.0 μL of the supernatant was taken, into which 70.0 μL of 0.5% aqueous formic acid solution was added. The mixture was vortexed for 5 minutes. 15 μL of the mixture solution was sampled and injected into the LC-MS/MS to determine the drug concentration in plasma. 20.0 μL of thawed plasma sample was taken. 60 μL of acetonitrile solution (containing 5 ng·mL^-1 Verapamil, 50 ng·mL^-1 Glibenclamide, 200 ng·mL^-1 Tolbutamide and 200 ng·mL^-1 Diclofenac) were added to precipitate protein. […] The mixture was vortexed for 10 minutes. 10.0 μL of the mixture solution was sampled and injected into the LC-MS/MS to determine the drug concentration in plasma. 30.0 μL of thawed plasma sample was taken. 150 μL of acetonitrile solution (containing 5 ng·mL^-1 Verapamil, 50 ng·mL^-1 Glibenclamide, 200 ng·mL^-1 Tolbutamide and 200 ng·mL^-1 Diclofenac) were added to precipitate protein. The mixture was vortexed for 5 minutes, and centrifuged at 3700 rpm for 8 minutes. 70.0 μL of the supernatant was taken, into which 70.0 μL of 0.5% aqueous formic acid solution was added. The mixture was vortexed for 5 minutes. 10.0 μL of the mixture solution was sampled and injected into the LC-MS/MS to determine the drug concentration in plasma. […] Table 5 Pharmacokinetic Parameters after Subcutaneous Injection of Different Polypeptide Compounds to Rats

[3] = target: human GLP-1R (Homo sapiens, UniProt P43220); assay: In vitro binding activity to human GLP-1 receptor ([125I]GLP-1 displacement, crude cell membranes); design: expressed in transfected cells; conditions: ratio of the Ki value of the endogenous ligand to the Ki value of the test compound; larger ratio = stronger binding
Chain of human GLP-1R (P43220 24-463): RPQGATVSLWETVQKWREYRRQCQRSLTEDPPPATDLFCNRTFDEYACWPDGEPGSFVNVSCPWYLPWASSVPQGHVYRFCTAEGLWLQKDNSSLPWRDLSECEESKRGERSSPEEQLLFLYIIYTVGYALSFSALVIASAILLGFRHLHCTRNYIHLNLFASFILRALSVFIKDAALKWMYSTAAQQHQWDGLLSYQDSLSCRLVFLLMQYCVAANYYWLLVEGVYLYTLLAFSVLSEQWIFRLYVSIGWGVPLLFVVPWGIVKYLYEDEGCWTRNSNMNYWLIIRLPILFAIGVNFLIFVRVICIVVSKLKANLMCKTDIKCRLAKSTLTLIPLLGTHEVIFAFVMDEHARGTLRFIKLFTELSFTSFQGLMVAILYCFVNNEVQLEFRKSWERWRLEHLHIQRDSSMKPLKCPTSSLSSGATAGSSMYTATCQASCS
Procedure: (§1) 89 µL of membrane dissolved in binding buffer (50 mM Hepes, pH 7.4, 5 mM MgCl2 , 5 mM EDTA, 0.005% TWEEN, 0.005% HSA) was transferred to a 96-well test plate (5 µg/well). The compound was serially diluted in DMSO, and then, 1 µL of the diluted compound or 100% DMSO was added to the test plate containing the membrane solution. 10 µL of [^125I] […] The test plate was left at room temperature for 90 minutes. The membrane complexes were harvested into a GF/B plate pre-coated with 0.5% PEI by using a Cell Harvester, and washed for 3 times with 500 µL of pre-cooled elution buffer (50 mM Hepes, pH 7.4, 500 mM NaCl) at 4°C. After drying at 37°C for 2 hours, 50 µL of scintillation fluid was added to each well. The plate was read with a MicroBeta2 scintillation counter after sealing and settling for at least 1 hour so as to determine the membrane bound radioligand level.
The IC50 concentration was converted to Ki (Ki was the inhibition constant) using the Cheng-Prusoff equation.

[4] = target: T1, human GIP Receptor (Homo sapiens, UniProt P48546); assay: In vitro binding activity to human GIP receptor ([125I]GIP displacement, crude cell membranes); conditions: ratio of the Ki value of the endogenous ligand to the Ki value of the test compound; larger ratio = stronger binding
T1 construct: expressed in transfected cells
T1 sequence (P48546 22-466): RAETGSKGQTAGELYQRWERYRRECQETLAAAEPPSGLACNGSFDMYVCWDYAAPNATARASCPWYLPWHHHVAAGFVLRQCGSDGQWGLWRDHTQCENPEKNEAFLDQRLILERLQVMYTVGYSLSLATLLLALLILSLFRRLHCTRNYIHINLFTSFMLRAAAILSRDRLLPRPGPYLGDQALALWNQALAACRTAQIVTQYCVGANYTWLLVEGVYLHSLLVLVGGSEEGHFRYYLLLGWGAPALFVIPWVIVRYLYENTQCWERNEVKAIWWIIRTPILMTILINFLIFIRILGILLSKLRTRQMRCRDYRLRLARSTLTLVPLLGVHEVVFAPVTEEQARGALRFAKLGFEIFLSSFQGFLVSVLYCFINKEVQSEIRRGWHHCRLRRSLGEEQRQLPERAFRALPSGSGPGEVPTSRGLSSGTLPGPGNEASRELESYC
Procedure: as §1
hGIP and the compound of the present invention were dissolved in DMSO and stored at -80°C. 98 µL of membrane dissolved in binding buffer (50 mM HEPES pH 7.4, 5 mM MgCl2, 1 mM CaCl2, 0.1% BSA, 0.005% Tween-20) was transferred to a 96-well test plate (15 µg/well). The compound was serially diluted in DMSO, and then, 2 µL of the diluted compounds or 100% DMSO was added to the test plate containing the membrane solution. […] The test plate was left at room temperature for 90 minutes. The membrane complexes were harvested into a GF/B plate pre-coated with 0.5% PEI by using a Cell Harvester, and washed for 3 times with 500 µL of pre-cooled elution buffer (50 mM Tris-HCl pH 7.4, 125 mM NaCl) at 4°C. After drying at 37°C for 2 hours, 50 µL of scintillation fluid was added to each well. The plate was read with a MicroBeta2 scintillation counter after sealing and settling for at least 1 hour so as to determine the membrane bound radioligand level.
The IC50 concentration was converted to Ki (Ki was the inhibition constant) using the Cheng-Prusoff equation. Table 1. Receptor Binding Affinity, Ki Ratio

Compound | Hypoglycemic Duration ([1]; Group 2, longest time with p<0.05 vs. vehicle) [h] | Tmax [2] [h] | half-life [2] [h] | GLP-1R Ki ratio [3] | GIPR Ki ratio [4] | inhibition of the blood glucose AUC, times of that of P001 [1] [times] | Hypoglycemic Duration ([1]; Group 1, longest time with p<0.05 vs. vehicle) [h]
CC[C@H](C)[C@H](NC(=O)C(C)(C)NC(=O)[C@H](Cc1ccc(O)cc1)NC(=O)[C@H](CC(=O)O)NC(=O)[C@H](CO)NC(=O)[C@@H](NC(=O)C(C)(Cc1ccccc1)NC(=O)[C@@H](NC(=O)CNC(=O)[C@H](CCC(=O)O)NC(=O)C(C)(C)NC(=O)[C@@H](N)Cc1ccc(O)cc1)[C@@H](C)O)[C@@H](C)O)C(=O)NC(C)(C)C(=O)N[C@@H](CC(C)C)C(=O)N[C@@H](CC(=O)O)C(=O)N[C@@H](CCCCN)C(=O)N[C@@H](CCC(N)=O)C(=O)N[C@@H](C)C(=O)N[C@@H](CCC(N)=O)C(=O)N[C@@H](C)C(=O)N[C@@H](CCC(=O)O)C(=O)N[C@@H](Cc1ccccc1)C(=O)N[C@H](C(=O)N[C@@H](CCCCN)C(=O)N[C@@H](Cc1c[nH]c2ccccc12)C(=O)N[C@@H](CC(C)C)C(=O)N[C@@H](CC(C)C)C(=O)N[C@@H](CCCCNC(=O)COCCOCCNC(=O)COCCOCCNC(=O)CC[C@H](NC(=O)CC[C@H](NC(=O)CC[C@H](NC(=O)CCCCCCCCCCCCCCCCC(=O)O)C(=O)O)C(=O)O)C(=O)O)C(=O)NCC(=O)NCC(=O)N1CCC[C@H]1C(=O)N[C@@H](CO)C(=O)N[C@@H](CO)C(=O)NCC(=O)N[C@@H](C)C(=O)N1CCC[C@H]1C(=O)N1CCC[C@H]1C(=O)N1CCC[C@H]1C(=O)N[C@@H](CO)C(=O)N[C@@H](CCCCN)C(N)=O)C(C)C (some centres unmarked) [Compound P018] | 48 | 24 | 18.3 ± 6.77 | 1.45 | 0.05 |  | 
CC[C@H](C)[C@H](NC(=O)C(C)(C)NC(=O)[C@H](Cc1ccc(O)cc1)NC(=O)[C@H](CC(=O)O)NC(=O)[C@H](CO)NC(=O)[C@@H](NC(=O)C(C)(Cc1ccccc1)NC(=O)[C@@H](NC(=O)CNC(=O)[C@H](CCC(=O)O)NC(=O)C(C)(C)NC(=O)[C@@H](N)Cc1ccc(O)cc1)[C@@H](C)O)[C@@H](C)O)C(=O)NC(C)(C)C(=O)N[C@@H](CC(C)C)C(=O)N[C@@H](CC(=O)O)C(=O)N[C@@H](CCCCN)C(=O)N[C@@H](CCC(N)=O)C(=O)N[C@@H](C)C(=O)N[C@@H](CCC(N)=O)C(=O)N[C@@H](C)C(=O)N[C@@H](CCC(=O)O)C(=O)N[C@@H](Cc1ccccc1)C(=O)N[C@H](C(=O)N[C@@H](CCCCN)C(=O)N[C@@H](Cc1c[nH]c2ccccc12)C(=O)N[C@@H](CC(C)C)C(=O)N[C@@H](CC(C)C)C(=O)N[C@@H](CCCCNC(=O)COCCOCCNC(=O)COCCOCCNC(=O)COCCOCCNC(=O)CC[C@H](NC(=O)CCCCCCCCCCCCCCCCC(=O)O)C(=O)O)C(=O)NCC(=O)NCC(=O)N1CCC[C@H]1C(=O)N[C@@H](CO)C(=O)N[C@@H](CO)C(=O)NCC(=O)N[C@@H](C)C(=O)N1CCC[C@H]1C(=O)N1CCC[C@H]1C(=O)N1CCC[C@H]1C(=O)N[C@@H](CO)C(=O)N[C@@H](CCCCN)C(N)=O)C(C)C (some centres unmarked) [Compound P019] |  | 13.3 ± 9.24 | 10.9 ± 1.92 | 0.93 | 0.09 | 2.2 | 56
